# Data reported in ChEMBL document CHEMBL1129993, “Synthesis and biological characterization of 1,4,5,6-tetrahydropyrimidine and 2-amino-3,4,5,6-tetrahydropyridine derivatives as selective m1 agonists” (J Med Chem, 1997).
# pEC50, pIC50, pKi: −log10 of the molar value.
# Tests used:
# [1] = target: T1, Muscarinic acetylcholine receptor M1 (Mus musculus, UniProt P12657)
# T1 sequence (P12657 whole entry): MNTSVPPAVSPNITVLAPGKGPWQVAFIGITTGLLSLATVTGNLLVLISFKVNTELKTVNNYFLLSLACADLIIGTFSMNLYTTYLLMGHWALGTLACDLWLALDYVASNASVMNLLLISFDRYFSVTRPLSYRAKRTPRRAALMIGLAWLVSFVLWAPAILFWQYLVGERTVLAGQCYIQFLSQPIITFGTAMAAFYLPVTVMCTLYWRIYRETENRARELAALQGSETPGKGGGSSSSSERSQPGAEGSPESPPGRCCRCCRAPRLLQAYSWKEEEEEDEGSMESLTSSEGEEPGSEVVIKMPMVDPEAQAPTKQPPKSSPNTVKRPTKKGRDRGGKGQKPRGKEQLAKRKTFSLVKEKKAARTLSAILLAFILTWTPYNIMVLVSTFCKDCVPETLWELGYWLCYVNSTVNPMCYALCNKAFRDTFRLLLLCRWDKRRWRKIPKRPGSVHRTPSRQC
# Description: Tested against Muscarinic acetylcholine receptor M1 expressed in A9 L cell line
# [2] = target: Muscarinic acetylcholine receptor M3 (Mus musculus, UniProt Q9ERZ3)
# Description: Tested against Muscarinic acetylcholine receptor M3 expressed in A9 L cell line
# [3] = test system: A9; assay: cells; conditions: Mus musculus, A9L
# Description: Inhibition of Forskolin-Induced cAMP production in A9 L cells expressing m2 receptors
# [4] = target: T1, Muscarinic acetylcholine receptor M1; assay: biochemical
# [5] = target: T1, Muscarinic acetylcholine receptor M1; assay: biochemical; remark: listed apart in the source
# [6] = target: T1, Muscarinic acetylcholine receptor M1; assay: biochemical; remark: listed apart in the source
# [7] = species on record: Rattus norvegicus; assay: Tested for agonist activity through assays of phosphoinositide (PI) metabolism in slices from rat cerebral cortex at 100 uM; assay type: functional
# Sequence of Muscarinic acetylcholine receptor M3 (Q9ERZ3 whole entry): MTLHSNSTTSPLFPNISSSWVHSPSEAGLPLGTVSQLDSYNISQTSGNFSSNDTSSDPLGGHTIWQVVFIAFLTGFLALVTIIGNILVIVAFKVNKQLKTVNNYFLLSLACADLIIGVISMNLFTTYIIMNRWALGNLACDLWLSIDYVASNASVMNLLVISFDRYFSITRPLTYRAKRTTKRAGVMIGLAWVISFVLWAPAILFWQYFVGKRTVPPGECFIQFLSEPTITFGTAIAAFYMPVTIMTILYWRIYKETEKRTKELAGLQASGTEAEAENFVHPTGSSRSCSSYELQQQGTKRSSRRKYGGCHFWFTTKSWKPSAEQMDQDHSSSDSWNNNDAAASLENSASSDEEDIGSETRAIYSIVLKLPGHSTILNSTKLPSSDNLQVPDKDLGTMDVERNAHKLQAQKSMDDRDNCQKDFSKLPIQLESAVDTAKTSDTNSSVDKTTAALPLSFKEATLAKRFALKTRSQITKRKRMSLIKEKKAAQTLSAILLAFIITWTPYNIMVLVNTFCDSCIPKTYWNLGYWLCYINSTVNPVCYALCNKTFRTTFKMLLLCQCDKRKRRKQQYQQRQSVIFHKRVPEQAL
Structure (SMILES),pEC50 [1],pEC50 [2],pIC50 [3],pKi [4],pKi [5],pKi [6],Activity [7]
CCCC#Cc1noc(C2CN=CNC2)n1 (configuration not stated),–,–,–,–,7.76,6.86,–
Cc1noc(C2CN=CNC2)n1 (configuration not stated),5.27,5.96,6.96,8.60,8.64,7.68,–
COC(=O)C1CN=C(N)NC1 (configuration not stated),3.80,–,–,–,–,–,–
COC(=O)C1CN=CNC1 (configuration not stated),3.70,4.30,5.80,7.57,7.63,6.44,–
CC#CCOC(=O)C1CN=CNC1 (configuration not stated),4.30,–,–,–,8.05,7.85,–
C#CCOC(=O)C1CN=CNC1 (configuration not stated),4.48,4.74,6.11,–,8.54,7.38,–
C#CCCOC(=O)C1CN=CNC1 (configuration not stated),3.25,–,–,–,7.81,7.51,–
C#CCOC(=O)C1CCC(N)=NC1 (configuration not stated),3.94,4.92,6.36,–,–,–,–
C[N+](C)(C)CCOC(N)=O.[Cl-] [CARBACHOL],–,5.00,7.00,–,–,–,470%
C[N+](C)(C)CC#CCN1CCCC1=O [OXOTREMORINE METHIODIDE],6.15,–,–,–,–,–,–
O=C1CCCN1CC#CCN1CCCC1 [OXOTREMORINE],6.57,–,–,–,–,–,–
CCCCCCOc1nsnc1C1=CCCN(C)C1 [XANOMELINE],–,4.96,5.15,–,–,–,–

# Second part, led by results:
pEC50 [1],pEC50 [2],Structure (SMILES),pIC50 [3],pKi [4],pKi [5],pKi [6],Activity [7]
4.92,5.55,Cc1noc(C2=CCCN(C)C2)n1,5.92,8.98,9.23,–,–
–,4.96,COCc1noc(C2CN=CNC2)n1 (configuration not stated),–,–,–,–,–
4.85,5.24,CSCc1noc(C2CN=CNC2)n1 (configuration not stated),–,–,–,–,–
4.92,5.00,CCc1noc(C2CN=CNC2)n1 (configuration not stated),–,–,–,–,–
4.36,4.77,CCOC(=O)C1CN=CNC1 (configuration not stated),–,–,–,–,–
3.52,–,C#CCOC(=O)C1CN=C(N)NC1 (configuration not stated),–,–,–,–,–
4.10,–,C#C/C(C)=C/COC(=O)C1CN=CNC1 (configuration not stated),–,–,–,–,–
4.39,4.85,COC(=O)C1CCC(N)=NC1 (configuration not stated),–,–,–,–,–
